Data: ChEMBL document CHEMBL1122550

Experiment: The ability to displace [3H]colchicine binding to rat brain tubulin protein
Design: concentration or dose not given beside the values
Conditions: concentration not given here

| SMILES | inhibition |
| --- | --- |
| COc1cc2c(c(OC)c1OC)-c1ccc(OC)c(=O)cc1[C@@H](NC(=O)[C@@H]1CC(C)(C)N([O])C1(C)C)CC2 | 0% |
| COc1cc2c(c(OC)c1OC)-c1ccc(OC)c(=O)cc1[C@@H](NC(=O)[C@H]1CC(C)(C)N([O])C1(C)C)CC2 | 0% |
| COc1cc2c(c(OC)c1OC)-c1ccc(OC)c(=O)cc1[C@@H](NC(=O)COC(=O)[C@@H]1CC(C)(C)N([O])C1(C)C)CC2 | 72% |
| COc1c(COC(=O)C2CC(C)(C)N([O])C2(C)C)c2c(c(OC)c1OC)-c1ccc(OC)c(=O)cc1[C@@H](NC(C)=O)CC2 (stereo partly specified) | 24% |

Continued, values first:

| inhibition | SMILES |
| --- | --- |
| 60% | COc1cc2c(c(OC)c1OC)-c1ccc(OC)c(=O)cc1[C@@H](NC(=O)COC(=O)C1CC(C)(C)N([O])C1(C)C)CC2 (stereo partly specified) |
| 65% | COc1cc2c(c(OC)c1OC)-c1ccc(OC)c(=O)cc1[C@@H](NC(=O)COC(=O)[C@H]1CC(C)(C)N([O])C1(C)C)CC2 |
